Measured values taken from PMC4414346, “Crystal Structure of Allophycocyanin from Marine Cyanobacterium Phormidium sp. A09DM” (PLoS ONE, 2015).

Biological target: T1, Phormidium APC (allophycocyanin) (Phormidium rubidum, UniProt A0A078K1U6+A0A078K4M9)
T1 construct: gene apcA; native purification from the cyanobacterium; no tags; alpha 18064 Da and beta 18011 Da with chromophore; trimer of alpha-beta monomers (118 kDa); N-methylasparagine in beta; GenBank entries partial (alpha 9-161, beta 1-155), corrected in structure: alpha N10K, R49C, D145N, beta E35K
Assay: X-ray crystallography, […] A
Assay type: binding
Settings: covalent; one chromophore on Cys-81 of alpha and one on Cys-81 of beta; alpha-chromophore site also lined by beta residues in the trimer; crystals pH 8.5, PEG 6000

SMILES: C/C=C1/C(=C/c2[nH]c(/C=C3N=C(/C=C4\NC(=O)C(CC)=C4C)C(C)=C\3CCC(=O)O)c(CCC(=O)O)c2C)NC(=O)[C@@H]1C [phycocyanobilin]
- X-ray crystallography, 2.51 A: One PCB chromophore is covalently bonded to the conserved Cys-81 of α-subunit (α-chromophore)
